We go through 20 compounds from patent publication US10195185B2, “3-(1H-imidazo[4,5-C]pyridin-2-yl)-1H-pyrazolo[4,3-B]pyridines and therapeutic uses thereof” (Samumed, LLC, priority 2015, dated 2019).

A word on the pEC50: it is the EC50 on a negative log10 scale, so that one unit is a factor of ten. The term inhibition denotes the percentage by which the read-out fell short of the control.

For this test, the system named is Wnt activity (Wnt-responsive human Sp5 promoter, TCF/LEF binding sites) in SW480 colon carcinoma cells. The test can be described thus: Wnt activity screening assay: Sp5-Luc luciferase reporter gene in SW480 cells. It is filed as cell-based. Particulars: for pEC50: 10-point dose-response from 10 μM, incubated overnight; for inhibition at 10 µM: given for EC50 of >10 μM, read-out: percent inhibition at 10 μM. In a few lines:
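First, hygromycin-selected SW480 Sp5-Luc reporter cells are seeded in medium with 1% fetal bovine serum and exposed overnight to compound (up to 10 μM, 0.1% DMSO). Next, luciferase signal is read by luminescence. Finally, EC50 is fitted, or percent inhibition at 10 μM is reported above 10 μM.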
For orientation: A reporter such as luciferase makes a cellular process visible.

pEC50: −log10 of the molar value.

In the case of `c1cc2[nH]c(-c3n[nH]c4ccc(C5CCNCC5)nc34)nc2c(-c2ccc3c(c2)OCO3)n1` [Compound 1108, 3-(4-(Benzo[d][1,3]dioxol-5-yl)-1H-imidazo[4,5-c]pyridin-2-yl)-5-(piperidin-4-yl)-1H-pyrazolo[4,3-b]pyridine], the pEC50 is < 5.00 and the inhibition at 10 µM turned out to be 11%.
Regarding `NC1CN(c2cncc(-c3ccc4[nH]nc(-c5nc6c(-c7ccc(Cl)s7)nccc6[nH]5)c4n3)n2)C1` [Compound 1068, 1-(6-(3-(4-(5-Chlorothiophen-2-yl)-1H-imidazo[4,5-c]pyridin-2-yl)-1H-pyrazolo[4,3-b]pyridin-5-yl)pyrazin-2-yl)azetidin-3-amine], the pEC50 was 5.38.
For the compound `CN1CCN(c2nccc3[nH]c(-c4n[nH]c5ccc(-c6cncnc6)nc45)nc23)CC1` [Compound 251, 3-(4-(4-Methylpiperazin-1-yl)-1H-imidazo[4,5-c]pyridin-2-yl)-5-(pyrimidin-5-yl)-1H-pyrazolo[4,3-b]pyridine], the pEC50 is < 5.00 and the inhibition at 10 µM came out at 17.7%.
Taken in the same sequence, the figures for `O=C(Nc1cncc(-c2ccc3[nH]nc(-c4nc5c(-c6ccsc6)nccc5[nH]4)c3n2)c1)c1ccccc1` [Compound 291, N-(5-(3-(4-(Thiophen-3-yl)-1H-imidazo[4,5-c]pyridin-2-yl)-1H-pyrazolo [4,3-b]pyridin-5-yl)pyridin-3-yl)benzamide] were < 5.00 and 3.3%.
As to `c1cc2[nH]c(-c3n[nH]c4ccc(-c5cncc(OCCN6CCCC6)c5)nc34)nc2c(-c2ccoc2)n1` [Compound 690, 3-(4-(Furan-3-yl)-1H-imidazo[4,5-c]pyridin-2-yl)-5-(5-(2-(pyrrolidin-1-yl)ethoxy)pyridin-3-yl)-1H-pyrazolo[4,3-b]pyridine], the pEC50 is 5.42.
Regarding `O=C(Nc1cncc(-c2ccc3[nH]nc(-c4nc5c(-c6ccccn6)nccc5[nH]4)c3n2)c1)c1ccccc1` [Compound 151, N-(5-(3-(4-(Pyridin-2-yl)-1H-imidazo[4,5-c]pyridin-2-yl)-1H-pyrazolo[4,3-b]pyridin-5-yl)pyridin-3-yl)benzamide], the pEC50 was < 5.00 and the inhibition at 10 µM was 9.9%.
For the compound `c1cc2[nH]c(-c3n[nH]c4ccc(-c5cn[nH]c5)nc34)nc2cn1` [Compound 651, 3-(1H-Imidazo[4,5-c]pyridin-2-yl)-5-(1H-pyrazol-4-yl)-1H-pyrazolo[4,3-b]pyridine], the pEC50 was < 5.00 and the inhibition at 10 µM came out at 22.3%.
As to `Fc1ccccc1-c1nccc2[nH]c(-c3n[nH]c4ccc(-c5ccccn5)nc34)nc12` [Compound 84, 3-(4-(2-Fluorophenyl)-1H-imidazo[4,5-c]pyridin-2-yl)-5-(pyridin-2-yl)-1H-pyrazolo[4,3-b]pyridine], the pEC50 was 6.42.
`Cc1ccc(-c2nccc3[nH]c(-c4n[nH]c5ccc(-c6cncc(OC7CCCCC7)c6)nc45)nc23)s1` [Compound 735, 5-(5-(Cyclohexyloxy)pyridin-3-yl)-3-(4-(5-methylthiophen-2-yl)-1H-imidazo[4,5-c]pyridin-2-yl)-1H-pyrazolo[4,3-b]pyridine] had a pEC50 of 5.98.
Consider `COc1cccc(-c2nccc3[nH]c(-c4n[nH]c5ccc(-c6cn[nH]c6)nc45)nc23)c1` [Compound 1020, 3-(4-(3-Methoxyphenyl)-1H-imidazo[4,5-c]pyridin-2-yl)-5-(1H-pyrazol-4-yl)-1H-pyrazolo[4,3-b]pyridine], for which the pEC50 was < 5.00 and the inhibition at 10 µM came out at 5.7%.
For `O=C(Cc1ccccc1)Nc1cncc(-c2ccc3[nH]nc(-c4nc5cnccc5[nH]4)c3n2)c1` [Compound 262, N-(5-(3-(1H-imidazo[4,5-c]pyridin-2-yl)-1H-pyrazolo[4,3-b]pyridin-5-yl)pyridin-3-yl)-2-phenylacetamide], the pEC50 is < 5.00 and the inhibition at 10 µM was 12.9%.
In the case of `c1ccc(CNCc2cncc(-c3ccc4[nH]nc(-c5nc6c(-c7ccsc7)nccc6[nH]5)c4n3)c2)cc1` [Compound 304, N-Benzyl-1-(5-(3-(4-(thiophen-3-yl)-1H-imidazo[4,5-c]pyridin-2-yl)-1H-pyrazolo [4,3-b]pyridin-5-yl)pyridin-3-yl)methanamine], the pEC50 is 5.44.
As for `Fc1ccccc1-c1nccc2[nH]c(-c3n[nH]c4ccc(-c5cncc(CNCC6CCCC6)c5)nc34)nc12` [Compound 81, 1-Cyclopentyl-N-((5-(3-(4-(2-fluorophenyl)-1H-imidazo[4,5-c]pyridin-2-yl)-1H-pyrazolo[4,3-b]pyridin-5-yl)pyridin-3-yl)methyl)methanamine], the pEC50 was 5.95.
Take `COc1cccc(-c2nccc3[nH]c(-c4n[nH]c5ccc(-c6cncc(OC7CCNCC7)c6)nc45)nc23)c1` [Compound 1025, 3-(4-(3-Methoxyphenyl)-1H-imidazo[4,5-c]pyridin-2-yl)-5-(5-(piperidin-4-yloxy)pyridin-3-yl)-1H-pyrazolo[4,3-b]pyridine]: the pEC50 was < 5.00 and the inhibition at 10 µM was determined as 15.1%.
Regarding `COc1cccc(-c2nccc3[nH]c(-c4n[nH]c5ccc(-c6cncc(O)c6)nc45)nc23)c1` [Compound 1030, 5-(3-(4-(3-Methoxyphenyl)-1H-imidazo[4,5-c]pyridin-2-yl)-1H-pyrazolo [4,3-b]pyridin-5-yl)pyridin-3-ol], the pEC50 is < 5.00 and the inhibition at 10 µM amounted to 14.1%.
As to `O=C(Nc1cncc(-c2ccc3[nH]nc(-c4nc5c(N6CCCCC6)nccc5[nH]4)c3n2)c1)C1CC1` [Compound 188, N-(5-(3-(4-(Piperidin-1-yl)-1H-imidazo[4,5-c]pyridin-2-yl)-1H-pyrazolo [4,3-b]pyridin-5-yl)pyridin-3-yl)cyclopropanecarboxamide], the pEC50 is < 5.00 and the inhibition at 10 µM was 19%.
Compound `c1cc2[nH]c(-c3n[nH]c4ccc(-c5cncc(CNCC6CCCC6)c5)nc34)nc2c(-c2ccoc2)n1` [Compound 333, 1-Cyclopentyl-N-((5-(3-(4-(furan-3-yl)-1H-imidazo[4,5-c]pyridin-2-yl)-1H-pyrazolo [4,3-b]pyridin-5-yl)pyridin-3-yl)methyl)methanamine] gave a pEC50 of 5.42.
`CN1CCN(c2nccc3[nH]c(-c4n[nH]c5ccc(-c6cncc(NC(=O)C7CCCC7)c6)nc45)nc23)CC1` [Compound 246, N-(5-(3-(4-(4-Methylpiperazin-1-yl)-1H-imidazo[4,5-c]pyridin-2-yl)-1H-pyrazolo [4,3-b]pyridin-5-yl)pyridin-3-yl)cyclopentanecarboxamide]: the pEC50 is < 5.00 and the inhibition at 10 µM was found to be 15%.
Consider `c1cc2[nH]c(-c3n[nH]c4ccc(-c5cncc(OC6CCNCC6)c5)nc34)nc2cn1` [Compound 656, 3-(1H-Imidazo[4,5-c]pyridin-2-yl)-5-(5-(piperidin-4-yloxy)pyridin-3-yl)-1H-pyrazolo[4,3-b]pyridine], for which the pEC50 is < 5.00 and the inhibition at 10 µM was determined as 15.4%.
Turning to `O=C(Nc1cncc(-c2ccc3[nH]nc(-c4nc5c(-c6ccccc6F)nccc5[nH]4)c3n2)c1)C1CCCC1` [Compound 78, N-(5-(3-(4-(2-Fluorophenyl)-1H-imidazo[4,5-c]pyridin-2-yl)-1H-pyrazolo [4,3-b]pyridin-5-yl)pyridin-3-yl)cyclopentanecarboxamide], the pEC50 is < 5.00 and the inhibition at 10 µM is 14.8%.
